Measured values reported in patent US20240325574A1, “EXTRADOMAIN B FIBRONECTIN TARGETING PEPTIDES AND DERIVATIVES FOR CANCER IMAGING AND THERAPY” (MOLECULAR THERANOSTICS, LLC, priority 2023, published 2024).
Where no end group is shown, it is not given here. S0456 = NIR dye, conjugated to the peptide N-terminus

Columns and labels:
[1] = target: EDB fragment (Homo sapiens, UniProt P02751); conditions: background, earlier work (U.S. Pat. No. 10,653,801); cited from earlier work
[2] = system: HSC3 HNC xenograft; assay: Topical staining of exposed HSC3 HNC xenograft tumor, fluorescence imaging; type: in vivo, mouse; conditions: 1 drop of 40 μM applied topically, rinsed with PBS after 2 minutes
From the text: (§1) FIGS. 3A and 3B provide images showing (A) fluorescence images of the organ tissues of the mice received IV injection of ZD2-S0456, showing ZD2-S0456 binding to HSC3 HNC xenograft. 1: kidney; 2: heart; 3: spleen; 4: brain; 5: muscle; 6: tumor; 7: liver; 8: lung. […] (B) Fluorescence image of mice bearing HSC3 HNC xenografts topically stained with PBS or ZD2-Cy5.5.
(§2) The specific staining of ZD2-S0456 to human HNC tumors comparing to normal tissues was investigated after intravenous injection of ZD2-S0456 in mouse xenograft models (FIG. 3). Mice were injected with 10 nmol/mouse ZD2-S0456 or PBS and euthanized 60 minutes post injection to collect tumor tissue and major organs. […] Furthermore, ZD2-S0456 can identify the tumor margin by topical staining of mouse xenograft tumors. The skin atop the HSC3 HNC xenograft tumor was removed to expose the tumor while the mouse was under anesthesia. Then 1 drop of 40 μM ZD2-Cy5.5 was topically applied to the tumor and surrounding tissues, which was rinsed with PBS after 2 minutes.

[3] = system: HSC3 HNC xenograft; assay: Fluorescence imaging of tumor and major organs after intravenous injection in HSC3 HNC xenograft mice; conditions: 10 nmol/mouse IV, 60 minutes post injection, ex vivo tissue imaging; no signal after PBS
From the text: as §1, §2

[4] = system: human breast cancer MDA-MB-231 TNBC xenograft; assay: Fluorescence imaging after intravenous injection in MDA-MB-231 TNBC xenograft mice; type: in vivo; conditions: 10 nmol/mouse IV, imaged 60 minutes post injection
Method: FIG. 4 provide a fluorescence image of mouse bearing human breast cancer MDA-MB-231 TNBC xenograft after IV injection of ZD2-S0456, showing ZD2-S0456 staining to the tumor.
The specific staining of ZD2-S0456 to human TNBC tumors comparing to normal tissues was investigated after intravenous injection of ZD2-S0456 in mouse xenograft models (FIG. 4). Mouse were injected with 10 nmol/mouse ZD2-S0456 and imaged 60 minutes post injection.

Sequence of EDB fragment (P02751 1271-1359 limits assumed): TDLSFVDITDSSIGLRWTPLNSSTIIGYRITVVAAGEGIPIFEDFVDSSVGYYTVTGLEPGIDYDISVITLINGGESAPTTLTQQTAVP

For TVRTSAD [ZD2], which “Binding affinity to the EDB fragment” value [1] is on record?
The value was “moderate binding affinity”.

Which “Fluorescence signal on tumor vs surrounding tissues after topical staining” value [2] does the source give for “ZD2-Cy5.5: ZD2 targeted fluorescence dye (Cy5.5) (TVRTSAD; also: Cy5.5 dye conjugated)” here?
The value was “strong fluorescence signal on the tumor but not the surrounding tissues”.

Which results are given for “ZD2-S0456: ZD2 peptide with NIR dye S0456 conjugated to its N-terminus (S0456-TVRTSAD-OH)”?
Fluorescence signal in the tumor [3]: strong signal in the tumor; Fluorescence signal in the tumor compared to surrounding normal tissues [4]: stronger signal in the tumor
